{"source": "patent US4960787A", "about": "“Certain pyrrolyl-substituted hydroxamic acid derivatives” (Ciba-Geigy Corporation, priority 1989, dated 1990)", "key": {"5-lipoxygenase [1]": {"biological_target": "T1, 5-lipoxygenase (Cavia porcellus, UniProt A0A286X958)", "T1 construct": "A-23187-stimulated guinea pig polymorphonuclear leukocytes; endogenous in cells; host or cells: guinea pig polymorphonuclear leukocytes", "T1 sequence (A0A286X958 1-674)": "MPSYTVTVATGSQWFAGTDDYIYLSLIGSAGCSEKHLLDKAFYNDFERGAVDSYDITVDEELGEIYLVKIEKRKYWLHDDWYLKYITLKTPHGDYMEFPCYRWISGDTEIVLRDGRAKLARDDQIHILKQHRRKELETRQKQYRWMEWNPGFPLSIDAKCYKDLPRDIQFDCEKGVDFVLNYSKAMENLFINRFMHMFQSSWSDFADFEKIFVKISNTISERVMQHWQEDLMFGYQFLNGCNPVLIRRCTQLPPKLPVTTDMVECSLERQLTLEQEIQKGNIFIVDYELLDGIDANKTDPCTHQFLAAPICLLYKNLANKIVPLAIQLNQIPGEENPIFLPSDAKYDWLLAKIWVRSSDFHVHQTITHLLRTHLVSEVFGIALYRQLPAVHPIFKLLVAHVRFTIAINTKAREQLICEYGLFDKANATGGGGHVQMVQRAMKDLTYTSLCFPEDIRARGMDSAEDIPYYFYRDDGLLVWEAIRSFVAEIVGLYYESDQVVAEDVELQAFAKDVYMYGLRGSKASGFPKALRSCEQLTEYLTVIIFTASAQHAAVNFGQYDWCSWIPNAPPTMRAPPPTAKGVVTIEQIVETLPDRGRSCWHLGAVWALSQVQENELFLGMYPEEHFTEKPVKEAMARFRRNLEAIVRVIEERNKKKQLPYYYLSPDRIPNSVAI", "assay": "inhibition of 5-HETE and LTB4 synthesis in A-23187-stimulated guinea pig polymorphonuclear leukocytes", "type": "cell-based", "conditions": "also printed as 1×10^-7 M, read-out: IC50, inhibition of the formation of 5-HETE and leukotriene B4 (LTB4)", "description": "5-Lipoxygenase inhibition is determined e.g. by measuring the percent inhibition of the synthesis of 5-HETE [(5S)-5-hydroxy-6,8,11,14-eicosa-tetraenoic acid] and leukotriene B4 (LTB4, 5,12-dihydroxy-6,8,10,14-eicosatetraenoic acid) in A-23187-stimulated guinea pig polymorphonuclear leukocytes, essentially according to radiometric thin-layer chromatographic assays described by Walker and Dawson (J. Pharm. Pharmacol. 31: 778, 1979) and Jakschik and Lee (Nature 287: 51, 1980) used to measure the formation of 5-HETE and LTB4 -like products from ^14 C-arachidonic acid. IC50 values are determined graphically as the concentration of test compound at which the synthesis of 5-HETE and LTB4 -like products is reduced to 50% of their respective control values.\n(§1) Illustrative of the invention, the compound of example 1a, (E)-3-(1-cycloheptyl-1H-pyrrol-3-yl)-N-hydroxy-N-methyl-2-propenamide, inhibits the formation of 5-HETE [(5S)-5-hydroxy-6,8,11,14-eicosatetraenoic acid] and leukotriene B4 (LTB4, 5,12-dihydroxy-6,8,10,14-eicosatetraenoic acid) in A-23187-stimulated guinea pig polymorphonuclear leukocytes, e.g. at an IC50 of about 0.1 micromolar (1×10^-7 M)."}, "5-lipoxygenase [2]": {"tested_on": "5-lipoxygenase", "assay": "ex vivo inhibition of A-23187-stimulated LTB4 formation in whole blood after oral administration", "conditions": "dose of about 3 mg/kg p.o. to the dog", "description": "Furthermore, the inhibition of 5-lipoxygenase is determined after oral or i.v. administration to rats or dogs by measuring ex vivo in whole blood the decrease of A-23187-stimulated LTB4 formation as compared to non-treated control animals.\nas §1"}, "[3]": {"tested_on": "rat pleurisy model of inflammation", "assay": "carrageenin-induced pleurisy model, exudate volume", "type": "in vivo", "conditions": "10 mg/kg p.o. for two days at -1, 6, 24 and 45 hours relative to carrageenin injection, 48 hours after injection"}}, "data": [{"smiles": "CN(O)C(=O)/C=C/c1ccn(C2CCCCCC2)c1", "note": "[example 1a, (E)-3-(1-cycloheptyl-1H-pyrrol-3-yl)-N-hydroxy-N-methyl-2-propenamide]", "values": [{"measurement": "IC50", "setting": "5-lipoxygenase [1]", "value": "~100", "unit": "nM"}, {"measurement": "inhibition of LTB4 formation as determined ex vivo", "setting": "5-lipoxygenase [2]", "value": 50, "unit": "%"}, {"measurement": "inhibition of exudate volume", "setting": "[3]", "value": "causes inhibition of exudate volume"}]}]}
